The values below come from ChEMBL document CHEMBL5537208 (J Med Chem, 2024).

One data set has as its target Cytochrome P450 3A4 (Homo sapiens, UniProt P08684). As to the kind of experiment: Inhibition of CYP3A4 (unknown origin) using testosterone as substrate. In kind it is ADME.
In another data set the target is T1, Orexin receptor type 2 (Homo sapiens, UniProt O43614).
T1 sequence (O43614 whole entry): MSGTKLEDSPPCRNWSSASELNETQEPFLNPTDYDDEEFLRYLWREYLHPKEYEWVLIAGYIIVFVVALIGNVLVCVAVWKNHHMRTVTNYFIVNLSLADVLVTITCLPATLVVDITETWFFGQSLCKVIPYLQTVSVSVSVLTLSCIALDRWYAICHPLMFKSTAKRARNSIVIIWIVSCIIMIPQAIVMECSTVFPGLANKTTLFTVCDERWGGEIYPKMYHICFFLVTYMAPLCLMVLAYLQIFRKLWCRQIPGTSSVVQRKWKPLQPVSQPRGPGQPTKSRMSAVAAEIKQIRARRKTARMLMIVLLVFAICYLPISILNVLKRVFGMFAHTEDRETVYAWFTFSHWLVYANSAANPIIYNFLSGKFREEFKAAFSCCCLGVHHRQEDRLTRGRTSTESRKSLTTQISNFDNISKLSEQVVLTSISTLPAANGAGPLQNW

Data set [1] in a line: Apparent permeability across apical to basal side in MDCKI-MDR1 cells. The note with it: dog, MDCK-MDR1. In kind it is ADME, cell-based, Canis lupus familiaris.
Data set [2] is described as follows: Apparent permeability across basal to apical side in MDCKI-MDR1 cells. In kind it is ADME, cell-based, Canis lupus familiaris. The note with it: dog, MDCK-MDR1.
A short description of data set [3]: Unbound drug concentration in Wistar rat plasma at 1 mg/kg, po measured after 1 hr by LC-tandem MS analysis. In kind it is ADME, organism-based. The settings on record: in vivo.
Data set [4] is described as follows: Unbound drug concentration in Wistar rat brain at 1 mg/kg, po measured after 1 hr by LC-tandem MS analysis. The settings on record: in vivo. In kind it is ADME, organism-based.
Data set [5] in a line: Drug concentration in cerebrospinal fluid of Wistar rat at 1 mg/kg, po measured after 1 hr by LC-tandem MS analysis. In kind it is ADME, organism-based. The note with it: read-out: Ct.
Data set [6] in a line: Ratio of unbound drug concentration in Wistar rat brain to plasma at 1 mg/kg, po measured after 1 hr by LC-tandem MS analysis. In kind it is ADME, organism-based. The settings on record: read-out: K(p,uu,brain).
Data set [7] is described as follows: Solubility of compound in FeSSIF. In kind it is ADME.
The nature of data set [8]: Drug concentration in Wistar rat Cerebrospinal fluid at 30 mg/kg, po measured after 1 hr by LC-tandem MS analysis. In kind it is ADME, organism-based. The settings on record: read-out: Ct.
A short description of data set [9]: Unbound drug concentration in Wistar rat brain at 30 mg/kg, po measured after 1 hr by LC-tandem MS analysis. In kind it is ADME, organism-based. The settings on record: in vivo.
The nature of data set [10]: In vivo receptor occupancy at OX2R in Wistar rat brain at 30 mg/kg, po measured after 1 hr relative to control. In kind it is functional.
A short description of data set [11]: Drug concentration in Wistar rat Cerebrospinal fluid at 100 mg/kg, po measured after 1 hr by LC-tandem MS analysis. In kind it is ADME, organism-based. The note with it: read-out: Ct.
Data set [12] is described as follows: Unbound drug concentration in Wistar rat brain at 100 mg/kg, po measured after 1 hr by LC-tandem MS analysis. In kind it is ADME, organism-based. The note with it: in vivo.
Data set [13] in a line: In vivo receptor occupancy at OX2R in Wistar rat brain at 100 mg/kg, po measured after 1 hr relative to control. In kind it is functional.
Data set [14] in a line: Drug absorption in rat. In kind it is ADME. The note with it: in vivo.
The nature of data set [15]: Drug absorption in dog. In kind it is ADME, Canis lupus familiaris. The settings on record: in vivo.
The nature of data set [16]: Thermodynamic solubility in FaSSIF at pH 6.5. In kind it is ADME. The settings on record: read-out: Therm_solubility.
A short description of data set [17]: Thermodynamic solubility in FeSSIF at pH 5.0. In kind it is ADME. The note with it: read-out: Therm_solubility.
Data set [18] is described as follows: Apparent permeability in wild-type MDCK-II cells. In kind it is ADME, cell-based, Canis lupus familiaris. The settings on record: dog.
Data set [19] in a line: Clearance in rat. In kind it is ADME. The note with it: in vivo.
Data set [20] can be described thus: Clearance in dog. In kind it is ADME, Canis lupus familiaris. The settings on record: in vivo.
Data set [21] deals with T2, Orexin/Hypocretin receptor type 1 (Homo sapiens, UniProt O43613).
T2 sequence (O43613 whole entry): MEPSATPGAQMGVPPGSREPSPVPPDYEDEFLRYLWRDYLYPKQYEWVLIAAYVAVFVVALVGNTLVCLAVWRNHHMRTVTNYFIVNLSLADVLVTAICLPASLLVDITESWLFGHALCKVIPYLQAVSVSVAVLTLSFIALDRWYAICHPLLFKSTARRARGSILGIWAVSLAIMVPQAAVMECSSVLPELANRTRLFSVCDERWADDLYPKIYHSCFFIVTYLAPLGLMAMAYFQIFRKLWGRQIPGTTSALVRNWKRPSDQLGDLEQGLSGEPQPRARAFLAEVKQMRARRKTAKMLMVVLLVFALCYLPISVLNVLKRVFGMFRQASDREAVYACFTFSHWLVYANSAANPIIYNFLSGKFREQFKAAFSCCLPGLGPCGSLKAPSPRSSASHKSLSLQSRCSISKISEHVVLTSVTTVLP
Description: Antagonist activity at human OX1R expressed in CHO cells preincubated for 120 mins followed by orexin-A addition by FLIPR assay

Data set [22] can be described thus: in vitro. The note with it: human, liver microsomes. (In general: Microsomes from liver hold many membrane-bound enzymes, among them those of drug oxidation.)
Data set [23] is described as follows: in vitro. The settings on record: rat, liver microsomes.
Data set [24] in a line: in vitro. The note with it: dog, MDCK-MDR1.
Description: Efflux ratio in MDCKI-MDR1 cells

The IC50 is the concentration that gives 50% inhibition. A lower IC50 goes with inhibition by little substance. As usually defined, the Papp A→B is the apparent permeability from the apical to the basolateral side of a cell layer. One may read the Papp B→A as the apparent permeability from the basolateral to the apical side of a cell layer. As a reminder, the solubility is the concentration that dissolves in the medium under given conditions. High values mean a readily soluble substance, low ones a poorly soluble substance. The Papp is the rate of passage across a membrane or cell layer, normalised by area and donor concentration. What is called clearance is the volume of plasma or blood freed of the substance per unit of time. Low values mean a low capacity for elimination, high ones a high capacity for elimination. Broadly, the microsomal CLint is a measure of how fast metabolising enzymes remove a compound, apart from limits set by blood flow. For orientation: efflux ratio means the permeability from basolateral to apical divided by that in the opposite direction, in the common usage.

Values after ≈ are worked out from the molar mass of the structure shown. Where only a bound is given, the exact number is not on record here.

Chain of Cytochrome P450 3A4 (P08684 whole entry): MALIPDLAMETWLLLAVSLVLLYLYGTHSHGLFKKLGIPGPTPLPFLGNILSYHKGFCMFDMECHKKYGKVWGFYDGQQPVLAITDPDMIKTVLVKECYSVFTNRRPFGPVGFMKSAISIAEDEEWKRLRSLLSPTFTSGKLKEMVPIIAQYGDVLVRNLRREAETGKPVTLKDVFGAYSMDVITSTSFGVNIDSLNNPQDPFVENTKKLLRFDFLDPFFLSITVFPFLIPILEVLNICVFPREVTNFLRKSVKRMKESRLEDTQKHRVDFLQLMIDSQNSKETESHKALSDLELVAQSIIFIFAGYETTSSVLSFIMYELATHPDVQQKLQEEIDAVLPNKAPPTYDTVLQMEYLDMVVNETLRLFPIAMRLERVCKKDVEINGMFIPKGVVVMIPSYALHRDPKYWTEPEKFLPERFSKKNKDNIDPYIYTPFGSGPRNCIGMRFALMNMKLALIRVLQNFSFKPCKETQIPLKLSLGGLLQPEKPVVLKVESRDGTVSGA
Description for Orexin receptor type 2: Antagonist activity at human OX2R expressed in CHO cells preincubated for 120 mins followed by orexin-A addition by FLIPR assay

In the case of `Cc1ccc(-n2nccn2)c(C(=O)N2CCNC[C@H]2Cc2cccc(-n3nccn3)c2)c1`, the IC50 came out at 25 µM against Cytochrome P450 3A4 and 0.666 µM against Orexin receptor type 2.
`Cc1ccc(C(=O)N2CCOC[C@H]2Cc2cccc(-n3nccn3)c2)c(-n2nccn2)c1` [NIVASOREXANT]: the apical-to-basolateral permeability (Papp A→B) in data set [1] was 204 nm/s. Moreover, the Papp B→A in data set [2] came to 705 nm/s. Further, the “Cp(f)” value in data set [3] was 0.227 µM. The entries for the “Drug uptake(free)” value in [4], in [9] and in data set [12] were 413 nM, 92 nM and 413 nM, respectively. The concentration at 1 h in data set [5] is 0.718 µM; in [8], 0.24 µM; in data set [11], 0.718 µM. In [6], the Kp uu at 1 h came to 1.82. In addition, the concentration in solution in data set [7] (solubility) was 0.27 mg/mL (≈ 629 µM). The Occ in data set [10] was 71%; in [13], 92%. In addition, the Drug absorption entry in [14] and in data set [15] was “Active” each time. Moreover, the solubility thermodynamic was 0.072 mg/mL (≈ 168 µM) in data set [16] and 0.15 mg/mL (≈ 349 µM) in data set [17]. Besides, the Papp in data set [18] is 439 nm/s. Further, the clearance in data set [19] came out at 1.86 L/h/kg; in data set [20] it was 0.462 L/h/kg. Further, the IC50 was found to be 0.0017 µM in data set [21] and 0.227 µM on Orexin receptor type 2. Besides, the values for the intrinsic clearance (microsomal CLint) at 1 µM in “in vitro [22]” and in “in vitro [23]” were 156 µL/min/mg and over 1250 µL/min/mg, respectively. Also, in the data set “in vitro [24]”, the efflux ratio amounted to 3.5.
`Cc1ccc(C(=O)N2CCOC[C@H]2Cc2cc(-n3nccn3)ccc2F)c(-n2nccn2)c1`: the “Cp(f)” value in data set [3] amounted to 0.177 µM. Besides, the entries for the “Drug uptake(free)” value in data set [4], in data set [9] and in [12] were 307 nM, 10 nM and 307 nM, respectively. The figures for the concentration at 1 h in [5], in data set [8] and in data set [11] were 0.55 µM, 0.045 µM and 0.55 µM, respectively. Moreover, in data set [6], the Kp uu at 1 h was 1.73. For the same compound, the figures for the Occ in data set [10] and in [13] were 13% and 82%, respectively. The microsomal CLint at 1 µM in “in vitro [22]” worked out at 99 µL/min/mg.
